Measured values taken from ChEMBL document CHEMBL1158356, “Synthesis, anti-tuberculosis activity and 3D-QSAR study of amino acid conjugates of 4-(adamantan-1-yl) group containing quinolines” (Eur J Med Chem, 2009).

What was measured:
[1] = system: Mycobacterium tuberculosis; test: Antimycobacterial activity against isoniazid-resistant Mycobacterium tuberculosis H37Rv ATCC 27294 at 1 ug/ml; format: functional
[2] = system: Mycobacterium tuberculosis; test: Antimycobacterial activity against isoniazid-resistant Mycobacterium tuberculosis H37Rv ATCC 27294 at 3.125 ug/ml; format: functional

With `N=C(N)NCCC[C@H](NC(=O)c1cc(C23CC4CC(CC(C4)C2)C3)c2ccccc2n1)C(=O)NN` the inhibition at 1 µg/mL [1] was 60% and the inhibition at 3.125 µg/mL [2] was 99%.
